From patent US6251893A, “Bicyclic piperidine and piperazine compounds having 5-HT6 receptor affinity” (NPS Allelix Corp., priority 1998, dated 2001)

Experiments:
5-HT2A receptor = 5-HT2A receptor (Homo sapiens, UniProt P28223); experiment: Binding to 5-HT2A receptor (selectivity); set-up: dose or concentration left out as unconfirmed; settings: selectivity versus 5-HT6; read-out: percent inhibition for the 5-HT2A receptor
human 5HT6 receptor [1] = biological target: T1, human 5HT6 receptor (Homo sapiens, UniProt P50406); experiment: Binding affinity for the 5-HT6 receptor (3H-LSD displacement); set-up: expressed in transfected cells; settings: 100 nM test compound; 3H-LSD (2 nM); 60 minute incubation at 37° C; read-out: percent inhibition of radioligand binding for the 5-HT6 receptor
Description: Binding Affinity for the 5-HT6 Receptor
The assay protocol generally entailed the incubation of membranes prepared from cells expressing the 5-HT6 receptor with ^3 H-LSD (2 nM). Increasing levels of the test compound were incubated with the radioligand and the membrane homogenates prepared from the recombinant cells. After a 60 minute incubation at 37° C., the incubation was terminated by vacuum filtration. The filters were washed with buffer and the filters were counted for radioactivity using liquid scintillation spectrometry. […] Concentrations ranging from 10^-11 M to 10^-5 M of the test compound were evaluated. […] Affinity for the 5-HT6 receptor is expressed as the amount (in percent) of binding of the radioligand that is inhibited in the presence of 100 nM of test compound. A greater percent inhibition indicates greater affinity for the 5-HT6 receptor.

5-HT7 receptor = 5-HT7 receptor (Homo sapiens, UniProt P34969); experiment: Binding to 5-HT7 receptor (selectivity); set-up: dose or concentration left out as unconfirmed; settings: selectivity versus 5-HT6; read-out: percent inhibition for the 5-HT7 receptor
human 5HT6 receptor [2] = biological target: T1, human 5HT6 receptor; experiment: Functional assay: reversal of serotonin-stimulated adenyl cyclase activity (cAMP) in HEK 293 cells stably expressing the human 5HT6 receptor; type: cell-based; set-up: cAMP functional assay in whole cells; settings: 100 nM and 10 μM test compound with serotonin
Description: The 5HT6 receptor responds to serotonin and other agonists by increasing adenyl cyclase mediated production of cyclic AMP. Particular test compounds were assayed for their effect on adenyl cyclase activity using the procedure described below.
Compounds acting as antagonists at the 5HT6 receptor will antagonize the agonist effect of serotonin and thus, will block the serotonin-inducedincrease in adenyl cyclase activity.
HEK 293 cells stably expressing the human 5HT6 receptor were plated in 6 well plates in DMEM (Dulbecco's Modified Eagle Medium)/F12 (Nutrient Mixture F12-Ham) media with 10% FCS (fetal calf serum) and G418 (Geneticen Disulfate, 500 ug/ml), and incubated at 37° C. in a CO2 incubator. The cells were allowed to grow to about 70% confluence before use in the assay.
The culture medium of each well was removed, and the wells were washed once with serum free media. Then 2 ml of SFM+IBMX medium (SFM with 0.5 mM IBMX, 3-isobutyl-1-methylxanthine, 0.1% ascorbic acid and 10 mM pargyline) was added to each well and the wells were incubated at 37° C. for 10 min. Following incubation, the SFM+IBMX medium was removed from each well and fresh SFM+IBMX media was added to the wells separately with one of a) serotonin (1 μM final concentration); b) test compound (100 nM and 10 μM, to test for agonist activity); and c) test compound (100 nM and 10 μM) along with serotonin ([…], to test for antagonist activity). Basal adenyl cyclase activity was determined from wells with only SFM+IBMX media added.
The cells were then incubated at 37° C. for 30 minutes in a CO2 incubator. Following incubation, the media were removed from each well. The wells were washed once with 1 ml of PBS (phosphate buffered saline). Each well was then treated with 1 mL cold 95% ethanol:5 mM EDTA (2:1) at 4° C. for 1 hour. The cells from each well were then scraped and transferred into individual Eppendorf tubes. The tubes were centrifuged for 5 minutes at 4° C., and the supernatants were transferred to new Eppendorf tubes and stored at 4° C. The pellets were discarded and the supernatants were stored at 4° C. until assayed for cAMP concentration. cAMP content for each extract was determined in duplicate by EIA (enzyme-immunoassay) using the Amersham Biotrak cAMP EIA kit (Amersham RPN 225). Final results were expressed as % basal response for agonists and % reversal of serotonin response for antagonists.
The total stimulation of adenyl cyclase by serotonin (So) was determined as the difference in concentration of cAMP in the serotonin-treated cells (Cd) and the basal-treated cells (Cf).
The net stimulation (S) of basal adenyl cyclase by an agonist test compound was determined as the difference in cAMP concentration in the drug-treatedcell (C) and the basal-treated cells (Cf).
The net stimulation (Ss) of basal adenyl cyclase by serotonin in the presence of an antagonist test compound was determined as the difference in cAMP concentration in the serontonin-drug-treated cells (Cs) and the basal-treated cells (Cf).
The ability of the antagonist test compound to reverse the serotonin stimuation of adenyl cyclase activity (% reversal, % R) was determined by the formula: […]

5HT2C receptor = biological target: T2, 5HT2C receptor (Homo sapiens, UniProt P28335); experiment: Binding to 5HT2C receptor (selectivity); settings: selectivity versus 5-HT6; read-out: percent inhibition for the 5HT2C receptor
T2 sequence (P28335 33-458): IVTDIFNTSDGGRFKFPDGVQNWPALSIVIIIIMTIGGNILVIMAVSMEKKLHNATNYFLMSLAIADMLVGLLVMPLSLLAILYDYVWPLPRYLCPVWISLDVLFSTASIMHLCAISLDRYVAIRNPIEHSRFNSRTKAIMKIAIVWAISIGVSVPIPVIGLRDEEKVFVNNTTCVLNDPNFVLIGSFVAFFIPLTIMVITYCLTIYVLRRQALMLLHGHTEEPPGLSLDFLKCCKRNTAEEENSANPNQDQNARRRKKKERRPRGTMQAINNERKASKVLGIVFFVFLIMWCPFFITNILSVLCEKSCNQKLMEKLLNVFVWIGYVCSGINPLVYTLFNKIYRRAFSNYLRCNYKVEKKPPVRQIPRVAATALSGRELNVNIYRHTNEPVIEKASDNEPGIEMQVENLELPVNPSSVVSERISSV

T1 sequence (P50406 whole entry): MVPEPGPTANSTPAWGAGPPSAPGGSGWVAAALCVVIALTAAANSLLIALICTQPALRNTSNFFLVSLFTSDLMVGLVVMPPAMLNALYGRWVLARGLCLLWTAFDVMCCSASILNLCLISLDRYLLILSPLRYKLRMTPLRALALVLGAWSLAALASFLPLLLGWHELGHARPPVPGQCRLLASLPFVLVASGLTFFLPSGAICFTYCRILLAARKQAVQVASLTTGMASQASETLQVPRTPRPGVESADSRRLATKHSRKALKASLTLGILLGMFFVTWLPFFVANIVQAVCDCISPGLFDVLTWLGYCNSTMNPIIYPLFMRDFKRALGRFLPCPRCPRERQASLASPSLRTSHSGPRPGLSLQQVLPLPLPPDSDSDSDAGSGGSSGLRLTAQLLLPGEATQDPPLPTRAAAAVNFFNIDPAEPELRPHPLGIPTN
Chain of 5-HT7 receptor (P34969 whole entry): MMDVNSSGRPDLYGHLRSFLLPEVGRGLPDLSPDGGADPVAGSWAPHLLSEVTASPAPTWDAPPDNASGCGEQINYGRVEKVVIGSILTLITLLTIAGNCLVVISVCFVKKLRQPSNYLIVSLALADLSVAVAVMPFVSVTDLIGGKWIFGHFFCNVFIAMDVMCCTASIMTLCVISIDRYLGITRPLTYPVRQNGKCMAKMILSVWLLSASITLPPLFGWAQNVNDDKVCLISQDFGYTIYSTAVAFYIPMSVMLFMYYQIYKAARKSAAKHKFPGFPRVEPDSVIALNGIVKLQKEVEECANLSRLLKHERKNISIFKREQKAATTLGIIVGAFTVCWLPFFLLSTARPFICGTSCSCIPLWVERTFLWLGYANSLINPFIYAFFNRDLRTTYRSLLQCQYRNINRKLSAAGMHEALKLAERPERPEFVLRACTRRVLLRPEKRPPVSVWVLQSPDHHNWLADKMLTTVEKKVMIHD
Chain of 5-HT2A receptor (P28223 whole entry): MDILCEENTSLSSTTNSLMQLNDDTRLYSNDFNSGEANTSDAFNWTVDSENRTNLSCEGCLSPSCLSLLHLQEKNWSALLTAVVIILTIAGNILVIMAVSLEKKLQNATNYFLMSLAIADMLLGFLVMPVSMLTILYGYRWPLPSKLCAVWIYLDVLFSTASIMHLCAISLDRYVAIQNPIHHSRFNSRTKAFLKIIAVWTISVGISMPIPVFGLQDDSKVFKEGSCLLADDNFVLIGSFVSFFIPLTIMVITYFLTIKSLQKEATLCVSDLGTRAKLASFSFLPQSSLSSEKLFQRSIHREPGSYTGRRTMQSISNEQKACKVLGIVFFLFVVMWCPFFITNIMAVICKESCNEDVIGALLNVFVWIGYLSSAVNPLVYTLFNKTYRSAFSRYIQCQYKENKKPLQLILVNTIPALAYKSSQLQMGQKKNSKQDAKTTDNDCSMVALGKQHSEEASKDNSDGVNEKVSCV

`O=S(=O)(c1ccccc1)n1cc(N2CCN3CCCC3C2)c2ccccc21` (racemic) [Example 6j, 3-[(6-R,S)-1,4-Diaza[4.3.0]bicyclonon-4-yl]-1-(phenylsulfonyl)indole] gave an inhibition (5-HT2A receptor) of under 20%, an inhibition at 0.1 µM (human 5HT6 receptor [1]) of over 80% and an inhibition (5-HT7 receptor) of under 20%. For the same compound, the “reversal of serotonin stimulation of adenyl cyclase (5-HT6 receptor antagonism)” value (shortened to “reversal”) (human 5HT6 receptor [2]) was “able to reverse the serotonin stimulation of adenyl cyclase” and the inhibition at 0.1 µM (5HT2C receptor) was under 20%.

In the case of `O=S(=O)(c1ccc2ccccc2c1)n1cc(C2CCN3CCCC3C2)c2cc(F)ccc21` (single isomer, unassigned; isomer i) [Example 10a, 5-Fluoro-3-[(7R or 7S)(8a-R,S)-octahydrohydro-7-indolizinyl]-1-(2-naphthalenesulfonyl)indole,Isomer I], the inhibition at 0.1 µM (human 5HT6 receptor [1]) was over 80% and the “reversal” value (human 5HT6 receptor [2]) was “able to reverse the serotonin stimulation of adenyl cyclase”.

`O=S(=O)(c1ccccc1)n1cc(C2CCN3CCCC3C2)c2cc(F)ccc21` (single isomer, unassigned; isomer i) [Example 10c, 5-Fluoro-3-[(7R or 7S)(8a-R,S)-octahydrohydro-7-indolizinyl]-1-phenylsulfonylindole, Isomer I] was tested, and the inhibition at 0.1 µM (human 5HT6 receptor [1]) was over 80% and the “reversal” value (human 5HT6 receptor [2]) was “able to reverse the serotonin stimulation of adenyl cyclase”.

`O=S(=O)(c1cccc2ccccc12)n1cc(C2=CCN3CCCC3C2)c2cc(F)ccc21` (racemic) [Example 6y, 5-Fluoro-3-[(8a-R,S)-1,2,3,5,8,8a-hexahydro-7-indolizinyl]-1-(1-naphthalenesulfonyl)indole] showed an inhibition (5-HT2A receptor) of under 20%, an inhibition at 0.1 µM (human 5HT6 receptor [1]) of over 80% and an inhibition (5-HT7 receptor) of under 20%. The “reversal” value (human 5HT6 receptor [2]) was “able to reverse the serotonin stimulation of adenyl cyclase” and the inhibition at 0.1 µM (5HT2C receptor) was under 20%.

In the case of `O=S(=O)(c1ccc2ccccc2c1)n1cc(C2CCN3CCCC3C2)c2cc(F)ccc21` (single isomer, unassigned; isomer ii) [Example 10b, 5-Fluoro-3-[(7R or 7S)(8a-R,S)-octahydrohydro-7-indolizinyl]-1-(2-naphthalenesulfonyl)indole, Isomer II], the inhibition (5-HT2A receptor) was under 20%, the inhibition (5-HT7 receptor) was under 20% and the “reversal” value (human 5HT6 receptor [2]) was “able to reverse the serotonin stimulation of adenyl cyclase”. The inhibition at 0.1 µM (5HT2C receptor) was under 20%.

`O=S(=O)(c1ccccc1)n1cc(C2=CCN3CCCC3C2)c2cc(F)ccc21` (racemic) [Example 6x, 5-Fluoro-3-[(8a-R,S)-1,2,3,5,8,8a-hexahydro-7-indolizinyl]-1-phenylsulfonylindole] was tested, and the inhibition (5-HT2A receptor) was under 20%, the inhibition at 0.1 µM (human 5HT6 receptor [1]) was over 80% and the inhibition (5-HT7 receptor) was under 20%. For the same compound, the “reversal” value (human 5HT6 receptor [2]) was “able to reverse the serotonin stimulation of adenyl cyclase” and the inhibition at 0.1 µM (5HT2C receptor) was under 20%.

Compound `O=S(=O)(c1cccc2ccccc12)n1cc(N2CCN3CCCC3C2)c2ccccc21` (racemic) [Example 6b, 3-[(6-R,S)-1,4-Diaza[4.3. 0]bicyclonon-4-yl]-1-(1-naphthalenesulfonyl)indole] has an inhibition (5-HT2A receptor) of under 20%, an inhibition at 0.1 µM (human 5HT6 receptor [1]) of over 80% and an inhibition (5-HT7 receptor) of under 20%. The “reversal” value (human 5HT6 receptor [2]) was “able to reverse the serotonin stimulation of adenyl cyclase” and the inhibition at 0.1 µM (5HT2C receptor) was under 20%.

For `O=S(=O)(c1cccc2ccccc12)n1cc(C2CCN3CCCC3C2)c2cc(F)ccc21` (single isomer, unassigned; isomer ii) [Example 10f, 5-Fluoro-3-[(7R or 7S)(8a-R,S)-octahydrohydro-7-indolizinyl]-1-(1-naphthalenesulfonyl)indole,Isomer II], the inhibition (5-HT2A receptor) was under 20%, the inhibition (5-HT7 receptor) was under 20% and the “reversal” value (human 5HT6 receptor [2]) was “able to reverse the serotonin stimulation of adenyl cyclase”. It also gave an inhibition at 0.1 µM (5HT2C receptor) of under 20%.

`O=S(=O)(c1cccc2ccccc12)n1cc(C2CCN3CCCC3C2)c2cc(F)ccc21` (single isomer, unassigned; isomer i) [Example 10e, 5-Fluoro-3-[(7R or 7S)(8a-R,S)-octahydrohydro-7-indolizinyl]-1-(1-napthalenesulfonyl)indole, Isomer I] was tested, and the inhibition at 0.1 µM (human 5HT6 receptor [1]) was over 80% and the “reversal” value (human 5HT6 receptor [2]) was “able to reverse the serotonin stimulation of adenyl cyclase”.
